Reference: PubChem BioAssay (NCI)
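In this assay, cells in 96-well plates receive the compound at five concentrations for 48 hours. Endpoints are linearly interpolated between the surrounding concentrations. TGI: total growth inhibition.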

Assays:
Experiment in all cases: NCI anticancer screen, dose series, 48 h
SR leukemia = test system: SR leukemia
T-47D breast = test system: T-47D breast
DU-145 prostate = test system: DU-145 prostate
BT-549 breast = test system: BT-549 breast
MDA-MB-231 breast = test system: MDA-MB-231 breast
HS 578T breast = test system: HS 578T breast
MDA-MB-435 = test system: MDA-MB-435
PC-3 prostate = test system: PC-3 prostate
MDA-N = test system: MDA-N

Compound	TGI (SR leukemia) [µM]	TGI (T-47D breast) [µM]	TGI (DU-145 prostate) [µM]	TGI (BT-549 breast) [µM]	TGI (MDA-MB-231 breast) [µM]	TGI (HS 578T breast) [µM]	TGI (MDA-MB-435) [µM]	TGI (PC-3 prostate) [µM]	TGI (MDA-N) [µM]
O=C(CC/C=C(/CS(=O)(=O)c1ccccc1)S(=O)(=O)c1ccccc1)c1ccccc1	> 100	–	–	–	–	–	–	–	–
CC(=O)NCCC1CN(C(=O)/C=C\C#C[Si](C)(C)C)c2ccccc21 (centres undefined)	–	86.4	> 100	> 100	67.3	> 100	> 100	> 100	> 100
